{"source": "paper PMC4701504", "about": "“Immunogenicity of HLA Class I and II Double Restricted Influenza A-Derived Peptides” (PLoS ONE, 2016)", "key": {"[1]": {"target": "HLA-A*02:01 (Homo sapiens, UniProt P04439, D140Y/D185E/D98H/E176V/E277Q/G131W/G231S/I119V/I121R/I166T/I218V/L300P/L318F/N151K/N90K/P208A/P217A/Q86G/Q94H/R138H/R169H/T345S)", "test": "biochemical", "format": "binding"}, "[2]": {"target": "recombinant HLA-DRA*01:01/DRB1*01:01 molecules (Homo sapiens, UniProt P01903+P01911, A100R/D57E/F55L/F60I/F76Y/I96L/L162R/M171V/P40L/Q125E/R42F/V115G/Y59C)", "test": "biochemical", "format": "binding"}, "[3]": {"tested_on": "CD8 and CD4 T cells of HLA-A*02:01/HLA-DRB1*01:01 transgenic mice", "format": "in vivo", "design": "key: I, CD8 response; II, CD4 response; -,no response", "details": "CAF09 + 20 nmol peptide i.p. three times at two week intervals; IFNγ ELISpot one week after last immunization (Fig 1)"}, "[4]": {"details": "[…], peptide concentration at half-saturation as approximation of KD, read-out: HLA-A*02:01 Measured"}, "[5]": {"details": "read-out: HLA-DRB1*01:01 Measured"}}, "note": "Read-outs that look alike come from different tables or passages of the source. Where a SMILES comes first, the peptide text is derived from it."}
{"compound": "CC[C@H](C)[C@H](NC(=O)[C@@H]1CCCN1C(=O)[C@H](CCCNC(=N)N)NC(=O)[C@@H](NC(=O)[C@H](CCCCN)NC(=O)[C@H](CC(C)C)NC(=O)[C@H](Cc1c[nH]c2ccccc12)NC(=O)[C@H](CCC(=O)O)NC(=O)[C@H](CCSC)NC(=O)[C@H](CC(C)C)NC(=O)[C@@H](N)C(C)C)[C@@H](C)O)C(=O)O", "note": "[M(41–51)] (H-VLMEWLKTRPI-OH)", "values": [{"measurement": "Kd", "setting": "[1]; [4]", "result": 0.101, "unit": "µM"}, {"measurement": "Kd", "setting": "[2]; [5]", "result": 0.119, "unit": "µM"}]}
{"compound": "CSCC[C@H](NC(=O)[C@@H](N)CCCNC(=N)N)C(=O)NCC(=O)N[C@@H](C)C(=O)N[C@H](C(=O)N[C@H](C(=O)N[C@H](C(=O)N[C@@H](CCC(=O)O)C(=O)N[C@H](C(=O)O)C(C)C)[C@@H](C)O)[C@@H](C)O)C(C)C", "note": "[M(134–142)] (H-RMGAVTTEV-OH)", "values": [{"measurement": "Kd", "setting": "[1]", "result": 0.133, "unit": "µM"}, {"measurement": "Kd", "setting": "[2]; [5]", "result": "> 5", "unit": "µM"}]}
{"compound": "CC[C@H](C)[C@H](NC(=O)[C@H](CC(C)C)NC(=O)[C@H](C)NC(=O)[C@H](CO)NC(=O)[C@H](CCCNC(=N)N)NC(=O)[C@H](C)NC(=O)[C@H](CC(C)C)NC(=O)[C@@H](N)Cc1ccccc1)C(=O)N[C@@H](CC(C)C)C(=O)O", "note": "[NP(258–266)] (H-FLARSALIL-OH)", "values": [{"measurement": "Kd", "setting": "[1]", "result": 0.0009, "unit": "µM"}, {"measurement": "Kd", "setting": "[2]; [5]", "result": 0.097, "unit": "µM"}]}
{"compound": "CC[C@H](C)[C@H](NC(=O)CNC(=O)[C@@H](NC(=O)[C@H](CC(C)C)NC(=O)[C@@H](N)CO)C(C)C)C(=O)N[C@@H](CC(=O)O)C(=O)N1CCC[C@H]1C(=O)N[C@@H](Cc1ccccc1)C(=O)N[C@@H](CCCNC(=N)N)C(=O)N[C@@H](CC(C)C)C(=O)O", "note": "[NP(297–306)] (H-SLVGIDPFRL-OH)", "values": [{"measurement": "Kd", "setting": "[1]; [4]", "result": 0.07, "unit": "µM"}, {"measurement": "Kd", "setting": "[2]", "result": 0.46, "unit": "µM"}]}
{"compound": "CC[C@H](C)[C@H](N)C(=O)N[C@H](C(=O)N[C@@H](CC(C)C)C(=O)N[C@@H](CCCCN)C(=O)N[C@@H](C)C(=O)N[C@@H](CC(N)=O)C(=O)N[C@@H](Cc1ccccc1)C(=O)N[C@@H](CO)C(=O)N[C@H](C(=O)O)C(C)C)[C@@H](C)CC", "note": "[NS1(128–136)] (H-IILKANFSV-OH)", "values": [{"measurement": "Kd", "setting": "[1]; [4]", "result": 0.045, "unit": "µM"}, {"measurement": "Kd", "setting": "[2]; [5]", "result": "> 5", "unit": "µM"}]}
{"compound": "CSCC[C@H](NC(=O)[C@@H](N)Cc1ccccc1)C(=O)N[C@@H](CCC(N)=O)C(=O)N[C@@H](C)C(=O)N[C@@H](CC(C)C)C(=O)N[C@@H](Cc1c[nH]cn1)C(=O)N[C@@H](CC(C)C)C(=O)N[C@@H](CC(C)C)C(=O)N[C@@H](CC(C)C)C(=O)O", "note": "[NS2(99–107)] (H-FMQALHLLL-OH)", "values": [{"measurement": "Kd", "setting": "[1]; [4]", "result": 0.013, "unit": "µM"}, {"measurement": "Kd", "setting": "[2]; [5]", "result": "> 5", "unit": "µM"}]}
{"compound": "CC[C@H](C)[C@H](NC(=O)[C@H](CO)NC(=O)[C@H](CC(C)C)NC(=O)[C@H](CCCCN)NC(=O)[C@H](CC(C)C)NC(=O)[C@H](C)NC(=O)[C@H](CC(=O)O)NC(=O)[C@H](CCSC)NC(=O)[C@H](CC(C)C)NC(=O)[C@H](CC(C)C)NC(=O)[C@@H](N)Cc1ccccc1)C(=O)O", "note": "[PA(282–292)] (H-FLLMDALKLSI-OH)", "values": [{"measurement": "Kd", "setting": "[1]; [4]", "result": 0.024, "unit": "µM"}, {"measurement": "Kd", "setting": "[2]; [5]", "result": 0.023, "unit": "µM"}]}
{"compound": "CSCC[C@H](NC(=O)[C@H](CO)NC(=O)[C@H](CCC(=O)O)NC(=O)[C@H](CCSC)NC(=O)[C@@H](NC(=O)[C@H](CC(=O)O)NC(=O)[C@H](CCCCN)NC(=O)[C@H](CC(C)C)NC(=O)[C@@H](N)Cc1ccccc1)C(C)C)C(=O)O", "note": "[PB1(166–174)] (H-FLKDVMESM-OH)", "values": [{"measurement": "Kd", "setting": "[1]; [4]", "result": 0.051, "unit": "µM"}, {"measurement": "Kd", "setting": "[2]", "result": "> 5", "unit": "µM"}]}
{"compound": "CC[C@H](C)[C@H](NC(=O)[C@H](CC(C)C)NC(=O)[C@@H](N)Cc1ccc(O)cc1)C(=O)N[C@@H](CCCNC(=N)N)C(=O)N[C@@H](C)C(=O)N[C@@H](CC(C)C)C(=O)N[C@H](C(=O)N[C@@H](CC(C)C)C(=O)N[C@@H](CC(N)=O)C(=O)N[C@H](C(=O)N[C@@H](CCSC)C(=O)O)[C@@H](C)O)[C@@H](C)O", "note": "[PB1(217–227)] (H-YLIRALTLNTM-OH)", "values": [{"measurement": "Kd", "setting": "[1]; [4]", "result": 0.046, "unit": "µM"}, {"measurement": "Kd", "setting": "[2]; [5]", "result": 0.076, "unit": "µM"}]}
{"compound": "CC[C@H](C)[C@H](NC(=O)[C@H](CCSC)NC(=O)[C@H](C)NC(=O)[C@H](CC(C)C)NC(=O)[C@@H](N)Cc1ccccc1)C(=O)N[C@H](C(=O)N[C@@H](Cc1ccc(O)cc1)C(=O)N[C@@H](CCSC)C(=O)N[C@H](C(=O)O)[C@@H](C)O)[C@@H](C)O", "note": "[PB1(318–326)] (H-FLAMITYMT-OH)", "values": [{"measurement": "Kd", "setting": "[1]; [4]", "result": 0.253, "unit": "µM"}, {"measurement": "Kd", "setting": "[2]; [5]", "result": 0.557, "unit": "µM"}]}
{"compound": "CSCC[C@H](NC(=O)CNC(=O)[C@H](CCSC)NC(=O)[C@H](CCSC)NC(=O)[C@@H](N)CCSC)C(=O)N[C@@H](Cc1ccccc1)C(=O)N[C@@H](CC(N)=O)C(=O)N[C@@H](CCSC)C(=O)N[C@@H](CC(C)C)C(=O)N[C@@H](CO)C(=O)N[C@H](C(=O)O)[C@@H](C)O", "note": "[PB1(407–417)] (H-MMMGMFNMLST-OH)", "values": [{"measurement": "Kd", "setting": "[1]; [4]", "result": 0.036, "unit": "µM"}, {"measurement": "Kd", "setting": "[2]; [5]", "result": 0.315, "unit": "µM"}]}
{"compound": "CSCC[C@H](NC(=O)CNC(=O)[C@H](CCSC)NC(=O)[C@@H](N)CCSC)C(=O)N[C@@H](Cc1ccccc1)C(=O)N[C@@H](CC(N)=O)C(=O)N[C@@H](CCSC)C(=O)N[C@@H](CC(C)C)C(=O)N[C@@H](CO)C(=O)N[C@H](C(=O)N[C@H](C(=O)O)C(C)C)[C@@H](C)O", "note": "[PB1(408–418)] (H-MMGMFNMLSTV-OH)", "values": [{"measurement": "Kd", "setting": "[1]; [4]", "result": 0.051, "unit": "µM"}, {"measurement": "Kd", "setting": "[2]; [5]", "result": 0.172, "unit": "µM"}]}
{"compound": "CSCC[C@H](NC(=O)CN)C(=O)N[C@@H](Cc1ccccc1)C(=O)N[C@@H](CC(N)=O)C(=O)N[C@@H](CCSC)C(=O)N[C@@H](CC(C)C)C(=O)N[C@@H](CO)C(=O)N[C@H](C(=O)N[C@H](C(=O)O)C(C)C)[C@@H](C)O", "note": "[PB1(410–418)] (H-GMFNMLSTV-OH)", "values": [{"measurement": "Kd", "setting": "[1]; [4]", "result": 0.023, "unit": "µM"}, {"measurement": "Kd", "setting": "[2]; [5]", "result": 0.034, "unit": "µM"}]}
{"compound": "CSCC[C@H](NC(=O)CN)C(=O)N[C@@H](Cc1ccccc1)C(=O)N[C@@H](CC(N)=O)C(=O)N[C@@H](CCSC)C(=O)N[C@@H](CC(C)C)C(=O)N[C@@H](CO)C(=O)N[C@H](C(=O)N[C@H](C(=O)N[C@@H](CC(C)C)C(=O)O)C(C)C)[C@@H](C)O", "note": "[PB1(410–419)] (H-GMFNMLSTVL-OH)", "values": [{"measurement": "Kd", "setting": "[1]; [4]", "result": 0.384, "unit": "µM"}, {"measurement": "Kd", "setting": "[2]; [5]", "result": 0.029, "unit": "µM"}]}
{"compound": "CSCC[C@H](NC(=O)[C@@H](N)CC(N)=O)C(=O)N[C@@H](CC(C)C)C(=O)N[C@@H](CO)C(=O)N[C@H](C(=O)N[C@H](C(=O)N[C@@H](CC(C)C)C(=O)NCC(=O)N[C@H](C(=O)O)C(C)C)C(C)C)[C@@H](C)O", "note": "[PB1(413–421)] (H-NMLSTVLGV-OH)", "values": [{"measurement": "Kd", "setting": "[1]; [4]", "result": 0.016, "unit": "µM"}, {"measurement": "Kd", "setting": "[2]; [5]", "result": "> 5", "unit": "µM"}]}
{"compound": "CC[C@H](C)[C@H](NC(=O)[C@@H]1CCCN1C(=O)[C@H](Cc1ccc(O)cc1)NC(=O)[C@H](CCCCN)NC(=O)[C@H](CCSC)NC(=O)[C@H](C)NC(=O)[C@H](CCSC)NC(=O)[C@H](CCSC)NC(=O)[C@@H](N)Cc1c[nH]c2ccccc12)C(=O)O", "note": "[PB2(49–57)] (H-WMMAMKYPI-OH)", "values": [{"measurement": "Kd", "setting": "[1]; [4]", "result": 0.036, "unit": "µM"}, {"measurement": "Kd", "setting": "[2]; [5]", "result": "> 5", "unit": "µM"}]}
{"compound": "CC[C@H](C)[C@H](NC(=O)[C@@H]1CCCN1C(=O)[C@H](Cc1ccc(O)cc1)NC(=O)[C@H](CCCCN)NC(=O)[C@H](CCSC)NC(=O)[C@H](C)NC(=O)[C@H](CCSC)NC(=O)[C@H](CCSC)NC(=O)[C@@H](N)Cc1c[nH]c2ccccc12)C(=O)N[C@H](C(=O)N[C@@H](C)C(=O)O)[C@@H](C)O", "note": "[PB2(49–59)] (H-WMMAMKYPITA-OH)", "values": [{"measurement": "Kd", "setting": "[1]; [4]", "result": 0.075, "unit": "µM"}, {"measurement": "Kd", "setting": "[2]; [5]", "result": 0.528, "unit": "µM"}]}
{"compound": "CC(C)C[C@H](NC(=O)[C@H](CCCCN)NC(=O)[C@H](CC(C)C)NC(=O)[C@@H](NC(=O)[C@H](CC(N)=O)NC(=O)[C@H](CCC(N)=O)NC(=O)[C@H](CCCCN)NC(=O)[C@@H](NC(=O)[C@H](Cc1ccc(O)cc1)NC(=O)[C@H](CCCCN)NC(=O)[C@@H](N)Cc1ccc(O)cc1)C(C)C)[C@@H](C)O)C(=O)N[C@@H](C)C(=O)N[C@H](C(=O)N[C@@H](Cc1c[nH]cn1)C(=O)N[C@@H](Cc1c[nH]cn1)C(=O)N[C@@H](Cc1c[nH]cn1)C(=O)N[C@@H](Cc1c[nH]cn1)C(=O)N[C@@H](Cc1c[nH]cn1)C(=O)N[C@@H](Cc1c[nH]cn1)C(=O)O)[C@@H](C)O", "note": "[Reference peptide, reference compound] (H-YKYVKQNTLKLATHHHHHH-OH)", "values": [{"measurement": "Kd", "setting": "[2]", "result": 0.008, "unit": "µM"}]}
{"compound": "LLQNSQVYS [NP(306–315)]", "values": [{"measurement": "Response: type of immune response, CD4 (second symbol)", "setting": "[3]", "result": "-"}, {"measurement": "Kd", "setting": "[2]; pH 7, read-out: HLA-DRB1*01:01 Measured", "result": "> 5", "unit": "µM"}]}
